Measured values from article PMC12503906, “Novel Pyrazolo [1,5‐a]−1,3,5‐Triazine Derivatives as CDK7 Inhibitors: Synthesis and Biological Insights in Pancreatic Ductal Adenocarcinoma Models” (Chemmedchem, 2025).
Values joined by “and” are separate entries in the source; they are usually repeats but may differ in a detail not shown here. Equal values may be shown once. Read-outs that look alike come from different tables or passages of the source.

How the values were obtained:
Format in all cases: cell-based
PATU‐T GR = assay: SRB chemosensitivity assay, gemcitabine resistant PATU‐T GR cells
Experimental: (§1) Three lines of immortalized PDAC cells were selected as representative phenotypes: mesenchymal (PATU‐T), quasimesenchymal (PANC‐1), and an epithelial clone of SUIT 2 cells (SUIT 2.28). Cells were cultured in noncoated T‐75 and T‐25 flasks under adherent conditions, using 1× DMEM (Gibco, 41,966,029) for PATU‐T and RPMI (Gibco, 21,875,034) for SUIT 2.28 and PANC‐1, both supplemented with 10% NBCS and 1% P/S. Additional employed models were the PDAC3 cells, a primary cell culture, the PSCs, which were immortalized healthy pancreatic cells, and the PATU‐T‐GR, which was a gemcitabine resistant model of PATU‐T. PDAC3 and PSCs were cultivated using complete RPMI medium, while PATU‐T‐GR required complete DMEM medium. For seeding, cells were detached with Trypsin‐EDTA (0.05%) (GibcoTM, 25,300–096) and were consequently counted using the Automated Cell Counter (Luna‐II, Westburg). Cells were then plated on 96‐ or 6‐well plates depending on the planned experiment.
(§2) The Sulforhodamine B (SRB) chemosensitivity assay was used to measure cytotoxicity and cell proliferation post drug treatment. At day 0, 3–6 × 10^3 cells were seeded in a 96‐well plate, depending on the cell line. At day 1, cells were attached and ready to be treated. For the calculation of the IC50, drug dilutions for the compounds 1b, 1c, 1d, 1e, 1g, 1hr, 1i, 1j, and LDC4297 (MedChemExpress, HY‐12,653) were prepared in dilution trays and eight different concentrations were included. These were added in triplicates to the cells, which were then incubated for […] at 37 °C in 5% CO2. During day 1, the control plate was fixed with 50% Trichloroacetic acid (TCA), as intended to be the baseline plate used for the normalization of the data. 72 h post‐treatment, the cells were fixed with TCA, and placed at 4 °C for about 2 h. The plates were then washed with distillated water and left to dry under the hood with ventilation. Subsequently, plates were stained with 0.4% SRB for 15 min and washed with 1% acetic acid to remove excess stain. Once dried again, the protein‐bound SRB was dissolved in 10 mM TRIS, and the plates were placed on a shaker for 10 min per plate. Lastly, the absorbance was measured at 492 nm with a spectrophotometer (Synergy HT, BioTek). The absorbance data obtained were normalized to the day 1 control, and the percentage of cell growth in relation to the control was calculated using the following formula. (1) %Cell growth=Mean OD treatment−Mean OD day0/Mean OD control−Mean OD day0×100
The percentage of proliferation and their respective standard deviations were used to perform statistical analysis in GraphPad Prism software v 10 (GraphPad Software, San Diego, CA). Data were normalized to the day 0 control and to their own untreated 72 h control. […]

PSC = assay: SRB chemosensitivity assay, pancreatic stellate cells (PSC); details: Fibroblast, read-out: IC50 PSC
Experimental: as §1
as §2, with “The plates were then washed with distillated water and left to dry under the hood with ventilation. Subsequently, plates were stained with 0.4% SRB for 15 min and washed with 1% acetic acid to remove excess stain. Once dried again, the protein‐bound SRB was dissolved in 10 mM TRIS, and the plates were placed on a shaker for 10 min per plate.” left out, “(1) %Cell growth=Mean OD treatment−Mean OD day0/Mean OD control−Mean OD day0×100” left out

PANC‐1 [1] = assay: SRB chemosensitivity assay, PANC‐1 cells; details: Homo sapiens, read-out: IC50 PANC‐1
Experimental: as §1, §2
The percentage of proliferation and their respective standard deviations were used to perform statistical analysis in GraphPad Prism software v 10 (GraphPad Software, San Diego, CA). Data were normalized to the day 0 control and to their own untreated 72 h control. These were transformed into logarithmic data, and log(inhibitor) versus response analysis was performed for obtaining the IC50 values per cell lines. Each experiment was conducted in triplicates.

PANC‐1 [2] = assay: Annexin V apoptosis assay, PANC‐1; details: 1 × IC50
Experimental: In order to investigate the apoptotic properties of the compounds 1b and 1g, the Annexin V apoptosis assay was performed. Annexins are calcium‐dependent phospholipid binding proteins, which are able to bind to phosphatidylserine (PS). The externalization of PS residues on the outer membrane of apoptotic cells can be detected by Annexin V.
For this assay, cells were seeded in a 96‐well plate at a concentration of 13.5 × 10^3 and 4.5 × 10^3 /well respectively for the 24 and 72 h experiments. The next day cells were treated with compounds 1b and 1g at 1 × IC50 and 4 × IC50 concentrations. The apoptosis assay was performed 24 and 72 h post‐treatment following the BD Pharmingen FITC Annexin V Apoptosis Detection Kit I (BD Biosciences, 556,547). The supernatant was aspirated, and cells were washed with phosphate‐buffered saline (PBS). Cells were consequently treated with binding buffer BBA + Annexin V (1:100) and were incubated in the dark at RT for 10 min. The supernatant was removed, and the cells were washed with BBA (1:10). Cells were then incubated with BBA + PI (1:100) and were immediately read with the spectrophotometer at ex. 485/ em. 535. Two different programs were used to read the Annexin V and the PI absorbance. Lastly, 100 µL of PBS were added to each well before being fixed with TCA. This was followed by the SRB assay to standardize fluorescence data according to cell count. Data were exported into GraphPad Prism 10 for statistical analysis.

Structure (SMILES) | IC50 (PATU‐T GR; SRB, gemcitabine resistant PATU‐T GR, average ± SEM, triplicate; read-out: IC50 PATU‐GR) | IC50 (PSC; SRB, nontumorous immortalized pancreatic fibroblasts, average ± SEM, triplicate) [µM] | IC50 (PANC‐1 [1]; PANC-1, SRB, 72 h of treatment, average ± SEM, triplicate) [µM] | apoptotic index (PANC‐1 [2]; PANC‐1, 24 h) | apoptotic index (PANC‐1 [2]; PANC‐1, 72 h) | IC50 (PATU‐T GR; read-out: IC50 PATU‐GR, SRB, gemcitabine resistant PATU‐T GR, average ± SEM, triplicate) [µM] | IC50 (PATU‐T GR; read-out: IC50 PATU‐GR; SRB, gemcitabine resistant PATU‐T GR, average ± SEM, triplicate) [µM] | IC50 (PSC) [µM] | IC50 (PANC‐1 [1]; PANC-1, 72 h) [µM]
Nc1ncnc2cc(-c3c[nH]c4ccc(Br)cc34)nn12 [Compound 1b, 7‐(5‐Bromo‐1H‐indol‐3‐yl)pyrazolo[1,5‐a][1,3,5]triazin‐4‐amine] | 1.92 µM and 1.9 µM | 6.6 ± 0.7 | 4.3 ± 0.8 | did not show any significant increase in apoptotic index | significant increase in apoptotic index | – | – | – | –
Cn1cc(-c2cc3ncnc(N)n3n2)c2cc(Br)ccc21 [Compound 1g, 7‐(5‐Bromo‐1‐methyl‐1H‐indol‐3‐yl)pyrazolo[1,5‐a][1,3,5]triazin‐4‐amine] | – | – | – | did not show any significant increase in apoptotic index | slight increase that was not statistically significant | 2.7 | 2.7 ± 0.5 | 5.3 ± 1.1 | 2.9 ± 0.8
